≈ marks a conversion by molar mass, not a printed value. Like-named read-outs stand apart in the source and are kept apart here.
How the values were obtained:
PI3Kγ [1] = target: T1, PI3Kγ (Homo sapiens, UniProt P48736); assay: PI3Kγ inhibitory activity (PI3-kinase HTRF assay, inhibition ratio); assay type: biochemical; conditions: 0.5 h, compound at 10 μmol/L; read-out: PI3Kg Inhibition Ratio % (10 μM)
Method in brief: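 Compound at 10 μmol/L preincubated 10 min with PI3Kγ and PIP2 substrate, then reacted with ATP for 30 minutes at room temperature; the compound, substrate and ATP figures as printed (40 μmol/L each) are solution concentrations. HTRF 665/620 nm ratio read after 18 hours. Inhibition ratio calculated against no-compound (100%) and no-enzyme (0%) controls.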

[2] = Solubility test (artificial intestinal juice pH 6.8, 1% DMSO); assay type: physicochemical; conditions: artificial intestinal juice pH 6.8 with 1% DMSO, fassgf or other biorelevant, kinetic from dmso stock, 25° C.
Experimental: The solubility of a compound was determined under a condition in which 1% DMSO was added. 10 mmol/L compound solution was prepared using DMSO, and then 6 μL of the compound solution was added to 594 μL of artificial intestinal juice in pH 6.8 (to 250 mL of 0.2 mol/L potassium dihydrogen phosphate reagent solution was added 118 mL of 0.2 mol/L NaOH reagent solution and water to provide a final volume of 1000 mL). After standing at 25° C. for 16 hours, the mixed solution was filtered with suction. The filtrate was diluted twice with methanol/water (1/1), and then a concentration in the filtration was measured with HPLC or LC/MS/MS by the absolute calibration method.

CYP3A4 = target: T2, CYP3A4 (Homo sapiens, UniProt P08684); assay: CYP3A4 fluorescence MBI test; assay type: in vitro ADME; conditions: difference in IC50 with 0 or 30 minutes pre-reaction; CYP3A4 expressed in E. coli, substrate 7-BFC
T2 construct: host or cells: E. coli
T2 sequence (P08684 whole entry): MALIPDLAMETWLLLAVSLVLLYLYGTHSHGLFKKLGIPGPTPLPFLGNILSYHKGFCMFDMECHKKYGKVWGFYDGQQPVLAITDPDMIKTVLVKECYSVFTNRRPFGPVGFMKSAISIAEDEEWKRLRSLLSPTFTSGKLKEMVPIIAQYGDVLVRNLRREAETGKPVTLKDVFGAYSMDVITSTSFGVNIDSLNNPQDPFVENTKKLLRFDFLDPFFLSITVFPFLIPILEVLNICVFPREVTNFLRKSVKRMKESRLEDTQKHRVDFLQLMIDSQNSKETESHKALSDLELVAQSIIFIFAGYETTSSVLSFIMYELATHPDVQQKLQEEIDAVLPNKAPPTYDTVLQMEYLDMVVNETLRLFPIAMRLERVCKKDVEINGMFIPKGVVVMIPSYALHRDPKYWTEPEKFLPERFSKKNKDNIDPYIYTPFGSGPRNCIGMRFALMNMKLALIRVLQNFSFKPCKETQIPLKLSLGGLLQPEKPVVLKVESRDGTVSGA
Method in brief: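 E. coli-expressed CYP3A4 debenzylating 5.6 μmol/L 7-BFC to fluorescent 7-HFC (Ex 420/Em 535 nm) in K-Pi pH 7.4 at 25° C, 15 min reaction. NADPH pre-incubation of 0 or 30 min, with 10-fold dilution before reaction. IC50 from 0.625–20 μmol/L (6 points); (+) for an IC50 shift ≥5 μmol/L, (−) for ≤3 μmol/L.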

[3] = tested on: CYP1A2, CYP2C9, CYP2C19, CYP2D6 and CYP3A4 (one value for the five species); assay: CYP inhibition test, five CYP species together (5CYPs_IC50; pooled human liver microsome); assay type: in vitro ADME; conditions: human, microsomes
Excerpt: O-de-ethylation of 7-ethoxyresorufin (CYP1A2), methyl-hydroxylation of tolbutamide (CYP2C9), 4′-hydroxylation of mephenyloin (CYP2C19), O-demethylation of dextromethorphan (CYP2D6), and hydroxylation of terfenadine (CYP3A4), which are typical substrate for metabolic reactions of human main CYP5 molecular species (CYP1A2, 2C9, 2C19, 2D6, and 3A4), were adopted as indexes.
The reaction conditions are as follows: substrate: 0.5 μmol/L of ethoxyresorufin (CYP1A2), 100 μmol/L of tolbutamide (CYP2C9), 50 μmol/L of S-mephenyloin (CYP2C19), 5 μmol/L of dextromethorphan (CYP2D6), and 1 μmol/L of terfenadine (CYP3A4); reaction time; 15 minutes; reaction temperature: 37° C.; enzyme: pooled human liver microsome 0.2 mg protein/mL; test drug concentration: 1, 5, 10, and 20 μmol/L (4 points).
In a 96-well plate, as a reaction solution, five kinds of substrates, a human liver microsome, and a test drug were added to 50 mmol/L Hepes buffer solution in the aforementioned ratio. A coenzyme NADPH was added to start a metabolic reaction, which is an index. After reacting at 37° C. for 15 minutes, a solution of methanol/acetonitrile (1/1 (v/v)) was added to quench the reaction. After centrifugation at 3000 rpm for 15 minutes, resorufin (CYP1A2 metabolite) in the supernatant was quantitated with a fluorescence multilabel counter, and hydroxylated tolbutamide (CYP2C9 metabolite), 4′-hydroxylated mephenyloin (CYP2C19 metabolite), […], terfenadine in alcohol form (CYP3A4 metabolite) were quantitated with LC/MS/MS.
The case wherein only DMSO (a solvent which dissolved a drug) was added to a reaction system was defined as a control (100%). When a test drug solution was added, the remaining activity (%) at each concentration was calculated, and then IC50 was calculated with a concentration and an inhibition ratio by an inverse estimation using a logistic model.

[4] = Metabolic stability test (pooled human liver microsome); assay type: in vitro ADME; conditions: percentage of test compound remained after 30 minutes, pooled human liver microsome 0.5 mg protein/mL, 1 mmol/L NADPH, 37° C., compound 0.5 μM
Method in brief: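 Pooled human liver microsomes (0.5 mg protein/mL) incubated with compound and 1 mmol/L NADPH at 37° C. in pH 7.4 Tris buffer for 0 or 30 min. Parent quantified by LC/MS/MS after methanol/acetonitrile quench; value is % remaining at 30 min versus 0 min.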

hERG channel (IKr) = target: T3, hERG channel (IKr) (Homo sapiens, UniProt Q12809); assay: hERG test (whole-cell patch-clamp, IKr in HEK293 cells); assay type: cell-based; conditions: human, HEK293 cells expressing hERG channel, pH 7.4, inhibition of maximum tail current (IKr)
T3 construct: expressed in transfected cells; host or cells: HEK293
T3 sequence (Q12809 whole entry): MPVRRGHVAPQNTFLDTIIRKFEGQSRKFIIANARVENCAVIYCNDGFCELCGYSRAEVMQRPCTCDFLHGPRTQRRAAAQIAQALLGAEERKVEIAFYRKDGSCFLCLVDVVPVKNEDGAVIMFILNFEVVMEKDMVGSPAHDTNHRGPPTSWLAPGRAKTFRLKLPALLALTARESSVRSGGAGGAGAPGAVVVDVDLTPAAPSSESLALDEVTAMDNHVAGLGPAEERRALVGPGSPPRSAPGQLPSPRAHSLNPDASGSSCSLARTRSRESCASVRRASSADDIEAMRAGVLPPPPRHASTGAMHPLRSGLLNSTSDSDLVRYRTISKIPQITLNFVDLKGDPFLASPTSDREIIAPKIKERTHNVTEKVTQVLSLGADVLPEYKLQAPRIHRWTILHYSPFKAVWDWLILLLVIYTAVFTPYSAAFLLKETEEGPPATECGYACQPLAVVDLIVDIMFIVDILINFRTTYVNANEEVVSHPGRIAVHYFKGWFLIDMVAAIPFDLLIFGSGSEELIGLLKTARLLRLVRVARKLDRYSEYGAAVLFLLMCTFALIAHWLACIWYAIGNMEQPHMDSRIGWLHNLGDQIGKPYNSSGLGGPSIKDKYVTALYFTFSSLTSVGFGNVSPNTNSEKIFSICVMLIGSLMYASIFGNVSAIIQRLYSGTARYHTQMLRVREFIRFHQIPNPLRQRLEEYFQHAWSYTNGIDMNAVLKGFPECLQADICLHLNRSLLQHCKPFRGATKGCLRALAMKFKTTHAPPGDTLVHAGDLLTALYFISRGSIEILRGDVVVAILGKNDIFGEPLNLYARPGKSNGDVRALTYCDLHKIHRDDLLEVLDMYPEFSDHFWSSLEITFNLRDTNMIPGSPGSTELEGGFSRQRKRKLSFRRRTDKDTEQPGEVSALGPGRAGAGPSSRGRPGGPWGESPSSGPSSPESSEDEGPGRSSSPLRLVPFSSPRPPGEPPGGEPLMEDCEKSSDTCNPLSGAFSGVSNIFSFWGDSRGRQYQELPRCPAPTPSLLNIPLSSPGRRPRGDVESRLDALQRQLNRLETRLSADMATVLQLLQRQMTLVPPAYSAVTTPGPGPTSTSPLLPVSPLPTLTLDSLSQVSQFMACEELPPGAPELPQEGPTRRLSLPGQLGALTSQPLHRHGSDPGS
Method in brief: (§1)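 hERG-expressing HEK293 cells, automated whole-cell patch clamp: hold −80 mV, +50 mV for 2 s, then −50 mV for 2 s to record IKr tail current. Compound in extracellular solution (pH 7.4) for 10 min at room temperature; inhibition of maximum tail current calculated versus pre-application and compared with 0.1% DMSO vehicle.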

[5] = BA test (oral absorbability, bioavailability); assay type: in vivo
Experimental: An experimental material and a method for examining oral absorbability
(1) Animals used: rats or mice were used. (2) Breeding condition: chow and sterilized tap water were allowed to be taken in freely. (3) Setting of a dosage and grouping: a predetermined dosage was administered orally or intravenously. Groups were formed as shown below. (A dosage varied depending on each compound)
Oral administration 1-30 mg/kg (n=2 to 3)
Intravenous administration 0.5-10 mg/kg (n=2 to 3)
(4) Preparation of administered liquid: In oral administration, a solution or suspension was administered. In intravenous administration, after solubilization, the administration was performed. (5) Method of Administration: In oral administration, compulsory administration to the stomach was conducted using an oral probe. In intravenous administration, administration from the caudal vein was conducted using a syringe with an injection needle. (6) Evaluation item: Blood was chronologically collected, and then the drug concentration in blood plasma was measured using a LC/MS/MS. (7) Statistical analysis: With regard to a shift in plasma concentration, the plasma concentration-time area under the curve (AUC) was calculated using a nonlinear least-squares program WinNonlin®. Bioavailability (BA) was calculated from the AUCs of the oral administration group and the intravenous administration group, respectively.

AKT phosphorylation = AKT phosphorylation inhibitory activity in MCP-1 stimulated THP-1 cells (sandwich ELISA); assay type: cell-based, Human; conditions: Homo sapiens, compound at 1 μmol/L, MCP-1 stimulation, read-out: AKT phosphorylation inhibition ratio
Method in brief: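 THP-1 cells (6.7×10^6/mL in HBSS) were preincubated with compound at 1 μmol/L for 5 min at 37 °C, then stimulated for 60 s with HBSS containing 1.2 μg/mL MCP-1 and lysed. Phospho-Akt Ser473/AKT1 sandwich ELISA was read at A450. % inhibition: no compound = 100% activity, no MCP-1 = 0%.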

[6] = target: T4, human ether-a-go-go related gene (hERG) channel (Homo sapiens, UniProt Q12809); assay: hERG test (whole-cell patch-clamp, IKr in HEK293 cells); assay type: cell-based; conditions: inhibition of maximum tail current (IKr), HEK293 cell expressing hERG, compound 1 μM, 10 minutes; 1 µM
T4 construct: expressed in transfected cells; host or cells: HEK293
Method in brief: as §1

PI3Kγ [7] = target: T1, PI3Kγ; assay: PI3Kγ inhibitory activity (Ki value); assay type: biochemical
Method in brief: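 Ki derived from IC50 measured at final compound levels of 50–0.05 μmol/L (HTRF read-out; 40 μmol/L ATP, 10 mmol/L MgCl2, 5 mmol/L DTT), IC50 by logistic or two-point linear fit. ATP Km from Lineweaver-Burk over 0.625–80 μmol/L ATP; Ki = IC50/(1+[ATP]/Km).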

PI3Kα = PI3Kα (Homo sapiens, UniProt P42336); assay: PI3Kα inhibitory activity (Ki value); assay type: biochemical; conditions: class symbols; read-out: PI3K α Ki
Experimental: (§2) According to Example 2 above, after 80 μg/mL PI-3 kinase γ of the enzyme solution (80 μg/mL PI-3 kinase γ, 10 mmol/L MgCl2, 5 mmol/L DTT) was changed to 0.8 μg/mL PI-3 kinase α, an inhibition ratio was calculated by a method similar to the method for measuring PI3Kγ inhibitory activity, and then defined as the PI3Kα inhibitory activity.
The α inhibitory activity (Ki value) of a compound was evaluated according to the following procedure.
According to Example 4 above, a Km value for PI3Kα was determined to calculate a Ki value.

PI3Kβ = PI3Kβ (Homo sapiens, UniProt P42338); assay: PI3Kβ inhibitory activity (Ki value); assay type: biochemical; conditions: class symbols; read-out: PI3K β Ki
Experimental: as §2, with “60” for “0.8”, “β,” for “α, an inhibition ratio was calculated by”, “activity was used to calculate an inhibition ratio, which was” for “activity, and then”, “PI3Kβ” for “PI3Kα”
According to Example 4 above, a Km value for PI3Kβ was determined to calculate a Ki value.

PI3Kδ = PI3Kδ (Homo sapiens, UniProt O00329); assay: PI3Kδ inhibitory activity (Ki value); assay type: biochemical; conditions: class symbols; read-out: PI3K δ Ki
Chain of PI3Kδ (O00329 whole entry, species assumed): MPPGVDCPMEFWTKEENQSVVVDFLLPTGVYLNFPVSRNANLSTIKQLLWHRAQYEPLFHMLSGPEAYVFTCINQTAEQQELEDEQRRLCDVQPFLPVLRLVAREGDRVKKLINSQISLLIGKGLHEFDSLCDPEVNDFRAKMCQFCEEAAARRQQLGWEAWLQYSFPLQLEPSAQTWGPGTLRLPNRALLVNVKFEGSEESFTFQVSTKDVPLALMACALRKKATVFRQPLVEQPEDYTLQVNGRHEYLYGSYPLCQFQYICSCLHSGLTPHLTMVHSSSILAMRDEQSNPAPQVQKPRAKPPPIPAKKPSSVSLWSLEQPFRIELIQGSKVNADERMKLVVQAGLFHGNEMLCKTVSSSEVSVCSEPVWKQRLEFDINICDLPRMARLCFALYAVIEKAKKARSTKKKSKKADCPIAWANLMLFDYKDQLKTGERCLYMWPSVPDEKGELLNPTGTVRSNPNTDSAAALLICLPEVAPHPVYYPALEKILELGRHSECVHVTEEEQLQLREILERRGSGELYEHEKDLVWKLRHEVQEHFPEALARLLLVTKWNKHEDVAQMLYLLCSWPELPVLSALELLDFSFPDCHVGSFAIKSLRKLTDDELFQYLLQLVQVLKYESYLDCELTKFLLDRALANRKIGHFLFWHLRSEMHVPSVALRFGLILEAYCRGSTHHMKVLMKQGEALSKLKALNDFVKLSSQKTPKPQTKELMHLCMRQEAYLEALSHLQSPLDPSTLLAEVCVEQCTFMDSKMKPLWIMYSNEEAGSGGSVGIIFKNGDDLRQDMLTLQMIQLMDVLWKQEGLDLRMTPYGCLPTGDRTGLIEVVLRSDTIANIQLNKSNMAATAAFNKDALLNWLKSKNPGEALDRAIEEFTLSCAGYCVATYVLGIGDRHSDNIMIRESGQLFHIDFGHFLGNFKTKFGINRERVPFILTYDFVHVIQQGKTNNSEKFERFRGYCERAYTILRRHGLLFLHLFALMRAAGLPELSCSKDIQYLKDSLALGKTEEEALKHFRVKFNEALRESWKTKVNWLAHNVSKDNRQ
Chain of PI3Kδ (P27986 whole entry partner, species assumed): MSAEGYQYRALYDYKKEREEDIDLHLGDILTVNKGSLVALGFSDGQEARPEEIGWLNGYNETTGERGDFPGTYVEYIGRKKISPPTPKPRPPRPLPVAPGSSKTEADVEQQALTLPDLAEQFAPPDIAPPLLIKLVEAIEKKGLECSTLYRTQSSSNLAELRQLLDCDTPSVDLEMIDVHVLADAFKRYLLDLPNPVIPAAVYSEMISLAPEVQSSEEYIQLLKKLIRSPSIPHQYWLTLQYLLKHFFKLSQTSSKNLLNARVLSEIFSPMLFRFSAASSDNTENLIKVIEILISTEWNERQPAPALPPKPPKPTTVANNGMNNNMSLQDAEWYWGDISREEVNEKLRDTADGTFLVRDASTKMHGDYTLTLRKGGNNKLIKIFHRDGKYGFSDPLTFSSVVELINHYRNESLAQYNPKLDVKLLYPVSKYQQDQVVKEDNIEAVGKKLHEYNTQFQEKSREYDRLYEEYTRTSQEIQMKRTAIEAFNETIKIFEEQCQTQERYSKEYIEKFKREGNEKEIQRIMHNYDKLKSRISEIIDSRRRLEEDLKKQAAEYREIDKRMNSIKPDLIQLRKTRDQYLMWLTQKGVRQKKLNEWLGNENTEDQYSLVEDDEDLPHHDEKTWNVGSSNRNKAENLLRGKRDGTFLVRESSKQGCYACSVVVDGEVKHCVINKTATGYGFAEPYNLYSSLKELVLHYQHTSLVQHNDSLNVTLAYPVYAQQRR
Experimental: as §2, with “158” for “0.8”, “δ,” for “α, an inhibition ratio was calculated by”, “activity was used to calculate an inhibition ratio, which was” for “activity, and then”, “PI3Kδ” for “PI3Kα”
According to Example 4 above, a Km value for PI3Kδ was determined to calculate a Ki value.

T1 sequence (P48736 whole entry, species assumed): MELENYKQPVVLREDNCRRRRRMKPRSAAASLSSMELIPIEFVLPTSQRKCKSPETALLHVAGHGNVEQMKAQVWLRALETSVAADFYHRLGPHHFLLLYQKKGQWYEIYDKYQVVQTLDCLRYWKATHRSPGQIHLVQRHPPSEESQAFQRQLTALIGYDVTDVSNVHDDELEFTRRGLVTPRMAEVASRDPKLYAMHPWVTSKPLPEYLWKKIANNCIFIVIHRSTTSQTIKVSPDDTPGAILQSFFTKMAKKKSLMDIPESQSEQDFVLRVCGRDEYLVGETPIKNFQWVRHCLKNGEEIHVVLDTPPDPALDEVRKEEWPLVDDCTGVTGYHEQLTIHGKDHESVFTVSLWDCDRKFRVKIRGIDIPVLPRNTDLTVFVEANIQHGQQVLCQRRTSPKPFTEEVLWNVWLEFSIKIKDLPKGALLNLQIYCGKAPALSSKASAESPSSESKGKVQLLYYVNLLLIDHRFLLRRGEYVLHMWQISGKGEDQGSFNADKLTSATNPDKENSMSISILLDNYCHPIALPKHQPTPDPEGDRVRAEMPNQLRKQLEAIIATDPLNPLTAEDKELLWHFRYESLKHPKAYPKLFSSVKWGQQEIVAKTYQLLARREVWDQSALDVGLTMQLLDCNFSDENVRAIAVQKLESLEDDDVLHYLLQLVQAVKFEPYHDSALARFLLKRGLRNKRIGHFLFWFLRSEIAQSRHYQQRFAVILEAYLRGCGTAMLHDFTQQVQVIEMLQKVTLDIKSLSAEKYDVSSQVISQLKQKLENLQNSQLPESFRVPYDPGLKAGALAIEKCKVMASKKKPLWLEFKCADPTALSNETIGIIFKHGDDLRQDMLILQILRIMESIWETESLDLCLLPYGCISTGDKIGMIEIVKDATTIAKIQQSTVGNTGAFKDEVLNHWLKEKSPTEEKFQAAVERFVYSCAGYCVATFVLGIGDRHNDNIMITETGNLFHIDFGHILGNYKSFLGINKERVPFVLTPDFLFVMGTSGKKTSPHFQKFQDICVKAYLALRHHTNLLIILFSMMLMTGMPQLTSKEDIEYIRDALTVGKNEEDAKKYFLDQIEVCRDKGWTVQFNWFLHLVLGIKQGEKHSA

inhibition at 10 µM (PI3Kγ [1]) [%] | solubility at 16 h [2] [µM] | IC50 at 15 min [3] [µM] | hLMS_ox(at 0.5 μM) % [4] [%] | SMILES | also measured
68 | > 50 | > 20 |  | COc1cc(N2CCc3nc(NC(=O)Nc4ccccc4C(=O)N4CCOCC4)sc3C2)nc(OC)n1 [Compound I-10] | MBI (CYP3A4): (−) (When 3 μmol/L or less, the compound is shown as (−))
≥ 95 | > 50 | > 20 | 87.2 | COc1cc(N2CCc3nc(NC(=O)Nc4ccccc4C(=O)NC(C)(C)C(=O)O)sc3C2)nc(OC)n1 [Compound I-19] | inhibition at 10 min, 10 µM (hERG channel (IKr); compound 10 μM): 9.5%
90 | 32.3 (≈ 16.3 µg/mL) | ≥ 10 |  | COc1cc(N2CCc3nc(NC(=O)NC4CCCCC4C(=O)NC(C)C)sc3C2)nc(OC)n1 (stereo not drawn) [Compound I-31] | 
 |  |  |  | COc1cc(N2CCc3nc(NC(=O)Nc4ccccc4C(=O)NC(C)C)sc3C2)ccn1 [Compound I-52] | MBI (CYP3A4): (−) (When 3 μmol/L or less, the compound is shown as (−)); BA (Rat, 1 mg/kg, Methylcellulose suspension Oral Administration) [5]: 40.9%
 | > 50 | > 20 |  | COc1cc(N2CCc3nc(NC(=O)Nc4ccccc4CNC(C)C)sc3C2)nc(OC)n1 [Compound I-84] | 
 | 42.6 (≈ 21.8 µg/mL) | ≥ 10 | 98 | COc1ccc(N2CCc3nc(NC(=O)Nc4ccccc4C(=O)NC(C)CO)sc3C2)cc1OC (stereo not drawn) [Compound I-107] | inhibition at 10 min, 1 µM (hERG channel (IKr); compound 1 μM): 5.4%
≥ 95 |  |  | 82.6 | COc1cc(N2CCc3nc(NC(=O)Nc4ccccc4C(=O)NC(C)C(O)C(F)(F)F)sc3C2)nc(OC)n1 (stereo not drawn) [Compound I-138] | inhibition at 1 µM (AKT phosphorylation): ≥ 95%; hERG(at 1 μM) % Inhibition [6]: 2.8%
 | 36.1 (≈ 17.2 µg/mL) | > 20 |  | CCOC(=O)[C@H]1CCC[C@H]1NC(=O)Nc1nc2c(s1)CN(c1cc(OC)nc(OC)n1)CC2 [Compound I-149] | 
91 | 28.1 (≈ 13.2 µg/mL) |  | 109 | C[C@@H](CO)NC(=O)c1ccccc1NC(=O)Nc1nc2c(s1)CN(c1cc[nH]c(=O)c1)CC2 [Compound I-183] | Ki (PI3Kγ [7]; class symbols, read-out: PI3K γ Ki): ≤ 0.3 µM; Ki (PI3Kγ [7]; read-out: PI3Kγ Ki value): 0.09 µM; Ki (PI3Kα): > 3 µM; Ki (PI3Kβ): > 3 µM; Ki (PI3Kδ): > 3 µM
≥ 95 | > 50 | ≥ 10 | 104 | COc1cc(N2CCc3nc(NC(=O)Nc4ccccc4C(=O)NC4CCNCC4)sc3C2)nc(OC)n1 [Compound I-202] | 
≥ 95 | 14 (≈ 7.27 µg/mL) | ≥ 10 |  | CC(C)NC(=O)c1ccccc1NC(=O)Nc1nc2c(s1)CN(c1cnc(N)c(C(F)(F)F)c1)CC2 [Compound I-212] | inhibition at 1 µM (AKT phosphorylation): ≥ 95%

— patent US20120071475A1, “UREA DERIVATIVES HAVING PI3K-INHIBITING ACTIVITY” (SHIONOGI & CO., LTD., priority 2009, published 2012)
